Measured values reported in US12565522B2, “Micropeptide HMMW and application thereof” (NANJING ANJI BIOTECHNOLOGY CO., LTD., priority 2019, dated 2026).
No end group written: not given here.

Tests used:
Assay in all cases: cells
Type in all cases: cell-based, human
Conditions in all cases: 1 to 32 μM, vs negative control, dose-dependent
[1] = system: SCC4 cells of head and neck cancer
Procedure: (§1) After SCC4 cells of head and neck cancer, SW579 cells of thyroid cancer, A549 cells of lung cancer, TE13 cells of esophageal squamous cell carcinoma, MGC803 cells of stomach cancer, MDA-MB-231 cells of breast cancer, UOK262 cells of kidney cancer and A431 cells of skin cancer of human were cultured in a 37 DEG C. 5% CO2 incubator until the density was 90%, they were digested and collected by trypsin, the cells were re-suspended in a culture solution and counted under a microscope, the concentration of the cells was adjusted to 3.0×10^4 cells/mL, and the cell suspension was inoculated to 96-well plates, 100 μL per well, and cultured in a 37 DEG C. 5% CO2 incubator overnight. After the cells were completely adherent, different doses of micropeptides HMMW I to IX were added as drug groups, taxol was used as a positive control group, and the culture solution without any drug was used as a blank control group. They were diluted with the culture solution till predetermined concentrations. The diluted solutions were added to 96-well plates, respectively, 100 μL per well, and incubated in a 37 DEG C. 5% CO2 incubator for 48 h. 20 μL of 5 mg/mL MTT was added to each well of the 96-well plates, and the culture was continued for 4 h. The culture medium was sucked away, and 100 μL of DMSO was added to each well for dissolution. Absorbance was detected by ELIASA at detection wavelength 570 nm and reference wavelength 630 nm, and proliferation inhibition (PI) was calculated according to Formula PI (%)=1−drug group/negative group. The test was independently repeated three times. The results obtained from the test were expressed with mean±SD and statistical t test was done. *P<0.05 means significant difference, and **P<0.01 means very significant difference.

[2] = system: MGC803 cells of stomach cancer
Procedure: as §1

[3] = system: A431 cells of skin cancer
Procedure: as §1

[4] = system: SW579 cells of thyroid cancer
Procedure: as §1

[5] = system: TE13 cells of esophageal squamous cell carcinoma
Procedure: as §1

[6] = system: MDA-MB-231 cells of breast cancer
Procedure: as §1

[7] = system: UOK262 cells of kidney cancer
Procedure: as §1

[8] = system: A549 cells of lung cancer
Procedure: as §1

Measured: inhibition of proliferation

MERAGVPGFSPRRSSVEAKMQSTSCSVRKSSTVTAWPAVVLLLSWGQRRGG-OH [HMMW-I]
significantly inhibit: all assays above
